This assay has as its target T1, CDK9 (Inactive) (Homo sapiens, UniProt P50750).
T1 construct: purchased Thermo Fisher Scientific (Life Technologies) SelectScreen
The assay is described as follows: SelectScreen LanthaScreen. The assay is classed as binding. The note with it: read-out: % displacement. In outline: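 NU5455 was profiled across the SelectScreen Broad panel of kinase activity and binding assays. Z'LYTE reactions such as CSF1R ran at apparent Km ATP, while the Adapta CAMK1 assay used ATP listed as 10. Values are given as percent.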

Consider one compound from paper PMC6934184, “Selective DNA-PKcs inhibition extends the therapeutic index of localized radiotherapy and chemotherapy” (The Journal of Clinical Investigation, 2019).

The structures appear in SMILES notation.

T1 sequence (P50750 whole entry): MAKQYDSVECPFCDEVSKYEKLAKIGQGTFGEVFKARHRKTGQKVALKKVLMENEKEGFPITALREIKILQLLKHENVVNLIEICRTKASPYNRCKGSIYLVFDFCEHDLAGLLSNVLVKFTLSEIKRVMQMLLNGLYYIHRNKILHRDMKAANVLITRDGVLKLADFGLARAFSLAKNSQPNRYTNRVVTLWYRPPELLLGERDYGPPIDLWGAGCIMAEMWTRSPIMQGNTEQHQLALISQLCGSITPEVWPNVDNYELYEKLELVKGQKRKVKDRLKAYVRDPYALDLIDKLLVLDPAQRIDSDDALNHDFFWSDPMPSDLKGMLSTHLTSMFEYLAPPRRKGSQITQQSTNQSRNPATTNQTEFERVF

On to `CN(C(=O)CN1CCOCC1)c1ccc2sc3c(-c4cccc5c(=O)cc(N6CC7CCC(C6)O7)oc45)cccc3c2c1` [NU5455], for which the inhibition at 1 µM was 9%.
